“Also recorded” adds a separate entry of the source.

Results on eight molecules are retold here after patent US20220380476A1, “Use of an anti-CCR7 antibody in combination therapies with a BTK inhibitor and/or BCL2- inhibitor for treating hematological malignancies” (Catapult Therapeutics B.V., priority 2019, published 2022).

The test system of data set [1] is primary cells from patients with B-cell malignancies. The settings on record: in vitro; cited from earlier work.
In data set [2] the test system is lymphoma and other blood cancers. As to conditions: cited from earlier work.
The next data set deals with MCL-1 (Homo sapiens, UniProt Q07820). As to conditions: cited from earlier work.
MCL-1, sequence (Q07820 whole entry, species assumed): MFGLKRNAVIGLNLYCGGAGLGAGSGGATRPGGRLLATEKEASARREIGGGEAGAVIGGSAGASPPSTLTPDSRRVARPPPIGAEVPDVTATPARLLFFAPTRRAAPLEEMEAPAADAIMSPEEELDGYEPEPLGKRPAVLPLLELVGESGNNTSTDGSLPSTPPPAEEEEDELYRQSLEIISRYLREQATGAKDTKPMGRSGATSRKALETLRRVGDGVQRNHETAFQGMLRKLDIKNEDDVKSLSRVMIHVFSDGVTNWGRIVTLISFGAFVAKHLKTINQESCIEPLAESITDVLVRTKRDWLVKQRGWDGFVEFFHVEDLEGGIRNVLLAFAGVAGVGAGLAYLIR
Another data set concerns the target Bcl-2 (Homo sapiens, UniProt P10415). As to conditions: cited from earlier work.
A further data set deals with CCR7. The data set can be described thus: Flow cytometry of surface CCR7 expression in CLL cells from treated patients. It is filed as in vivo, human. As to conditions: for change in surface CCR7 expression compared with naïve patients: CLL patients on treatment. As to the method:
Systems). […] Data acquisition was performed on a BD FACSCanto™ 11 Flow Cytometer (BD Biosciences).

Data set [3] deals with patients with chronic lymphocytic leukemia (CLL). The settings on record: cited from earlier work.
The next data set deals with BCL-XL and BCL-W. As to conditions: cited from earlier work.
A further data set concerns the target CD20 (human) (UniProt P11836).
The subject of the next data set is Bcl-2 mRNA. The settings on record: cited from earlier work.
Data set [4] deals with T1, human CC motif receptor 7 (CCR7) (human, UniProt P32248 25-378).
T1 sequence (looked up): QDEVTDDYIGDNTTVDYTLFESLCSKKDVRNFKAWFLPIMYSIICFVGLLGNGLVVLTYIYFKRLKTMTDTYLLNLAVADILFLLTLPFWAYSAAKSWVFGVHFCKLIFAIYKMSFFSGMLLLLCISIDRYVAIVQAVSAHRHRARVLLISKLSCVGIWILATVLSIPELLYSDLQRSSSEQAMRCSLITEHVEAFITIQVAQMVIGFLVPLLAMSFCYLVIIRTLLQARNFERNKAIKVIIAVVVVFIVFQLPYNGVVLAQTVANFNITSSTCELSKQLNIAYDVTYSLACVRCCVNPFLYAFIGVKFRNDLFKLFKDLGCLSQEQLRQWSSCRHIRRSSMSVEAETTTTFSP
The data set can be described thus: cell-based or functional assay.

Data set [5] deals with T1, human CC motif receptor 7 (CCR7). The data set can be described thus: cell-based or functional assay. This is another data set of the same source.
Data set [6] shares this target. Kind of data set: cell-based or functional assay. The source holds these as a separate data set.
Data set [7] shares this target. The data set can be described thus: cell-based or functional assay. This is another data set of the same source.
The target is the same in data set [8]. Kind of data set: cell-based or functional assay. The source holds these as a separate data set.
The target is the same in data set [9]. The data set can be described thus: cell-based or functional assay. The source holds these as a separate data set.

Bcl-2, sequence (P10415 whole entry): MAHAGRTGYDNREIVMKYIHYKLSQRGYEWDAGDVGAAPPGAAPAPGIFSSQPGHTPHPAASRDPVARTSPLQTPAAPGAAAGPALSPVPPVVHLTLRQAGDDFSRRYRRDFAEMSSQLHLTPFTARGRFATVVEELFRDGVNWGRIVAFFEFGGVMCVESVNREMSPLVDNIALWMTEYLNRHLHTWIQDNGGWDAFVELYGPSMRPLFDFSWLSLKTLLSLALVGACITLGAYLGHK
CD20 (human), sequence (P11836 whole entry): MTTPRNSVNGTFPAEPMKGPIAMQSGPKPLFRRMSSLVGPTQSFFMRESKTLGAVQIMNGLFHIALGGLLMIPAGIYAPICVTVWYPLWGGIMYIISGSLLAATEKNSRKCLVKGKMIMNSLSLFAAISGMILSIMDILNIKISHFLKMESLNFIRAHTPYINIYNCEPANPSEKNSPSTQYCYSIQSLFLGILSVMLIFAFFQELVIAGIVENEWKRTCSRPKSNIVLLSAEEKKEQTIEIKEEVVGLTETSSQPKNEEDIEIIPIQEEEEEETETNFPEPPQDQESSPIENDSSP

As for `CN(C)CC[C@H](CSc1ccccc1)Nc1ccc(S(=O)(=O)NC(=O)c2ccc(N3CCN(Cc4ccccc4-c4ccc(Cl)cc4)CC3)cc2)cc1[N+](=O)[O-]` [ABT-737, 4-[4-[(4′-chloro[1,T-biphenyl]-2-yl)methyl]-1-piperazinyl]A/-[[4-[[(1R)-3-(dimethylamino)-1-[(phenylthio)methyl]propyl]amino]-3-nitrophenyl]sulfonyl]benzamide], the “sensitivity of primary cells” value in [1] is on record as “sensitive”. In [2] (animal models), the survival result is reported as “improves survival” and the tumor regression result is “causes tumor regression”. For the same molecule, the “efficacy in patient xenografts” value in data set [2] (preclinical studies utilizing patient xenografts) is on record as “shows efficacy”. Besides, the “activity against MCL-1” value at MCL-1 is listed as “not A1 or Mcl-1”. Besides, the “affinity for Bcl-2, Bcl-xL and Bcl-w compared with previous Bcl-2 inhibitors” value at Bcl-2 is given as “higher affinity”.

On to `CC#CC(=O)N1CCC[C@H]1c1nc(-c2ccc(C(=O)Nc3ccccn3)cc2)c2c(N)nccn12` [acalabrutinib], for which, in the data set on CCR7, the “change in surface CCR7 expression compared with naïve patients” value (“change in surface CCR7 expression” for short) was “unchanged; also recorded: no changes”.

On to `CC1(C)CCC(c2ccc(Cl)cc2)=C(CN2CCN(c3ccc(C(=O)NS(=O)(=O)c4ccc(N[C@H](CCN5CCOCC5)CSc5ccccc5)c(S(=O)(=O)C(F)(F)F)c4)cc3)CC2)C1` [navitoclax, 4-(4-{[2-(4-Chlorophenyl)-5,5-dimethyl-1-cyclohexen-1-yl]methyl}-1-piperazinyl)-N-[(4-{[(2R)-4-(4-morpholinyl)-1-(phenylsulfanyl)-2-butanyl]amino}-3-[(trifluoromethyl)sulfonyl]phenyl)sulfonyl]-benzamide], for which the “activity against MCL-1” value at MCL-1 was “not A1 or Mcl-1”. Also, at Bcl-2, the “affinity for Bcl-2, Bcl-xL and Bcl-w compared with previous Bcl-2 inhibitors” value was “higher affinity”.

With `CC1(C)CCC(CN2CCN(c3ccc(C(=O)NS(=O)(=O)c4ccc(NCC5CCOCC5)c([N+](=O)[O-])c4)c(Oc4cnc5[nH]ccc5c4)c3)CC2)=C(c2ccc(Cl)cc2)C1` [venetoclax], in [3], the clinical response entry is “Good responses” and the thrombocytopenia result was “not observed”. In addition, the “percentage of CCR7-expressing CLL cells” value with CCR7 (CLL cells from patients on treatment) is recorded as “approximately 100%”. Further, in the data set on CCR7, the “change in surface CCR7 expression” value is on record as “maintained in essentially all CLL cells”. In the data set on BCL-XL and BCL-W, the “binding affinity to BCL-XL and BCL-W” value is recorded as “significantly lower affinity”; the “inhibition of Bcl-xL or Bcl-w” value is recorded as “not Bcl-xL or Bcl-w”. For the same molecule, the “activity against MCL-1” value at MCL-1 is on record as “no activity”.

For `C=CC(=O)N1CCC([C@@H]2CCNc3c(C(N)=O)c(-c4ccc(Oc5ccccc5)cc4)nn32)CC1` [zanabrutinib], in the data set with CCR7, the “change in surface CCR7 expression” value was “unchanged; also recorded: no changes”.

With RTX (antibody), the EC50 (read off the curve); ADCC on CLL cells of a patient receiving venetoclax with CD20 (human) was 2 µg/mL.

With oblimersen, in the data set with Bcl-2 mRNA, the cell proliferation entry was “inhibited”.

B1: CAP-100 (antibody, human IgG1, V domains shown)
VH: EVQLLESGGGFVKPGGSLKLSCVVSGLTFRDFAMSWVRQTPEKRLVWVATISSGGFYTYYPDSVKGRFTISRDNVRNILYLQMSSLRSEDTAVYYCVRRAYRYDGTGDYSALDYWGTGTTVTVSS
VL: DIQMTQSPSSLSASVGDRVTITCRASQDIGPSLNWYQQKPGKAPKRLIYATSNLDSGVPSRFSGSGSGTDFTLTISSLQPEDFATYYCLQFASSPLTFGQGTKVEIK
For the molecule B1, the “IC50 (read off the curve); CCL19-induced migration of CLL cells of an ibrutinib patient” value in [4] is about 0.2 µg/mL. Moreover, in [5], the “IC50 (read off the curve); CCL21-induced migration of CLL cells of a patient receiving venetoclax” value was about 0.1 µg/mL. The “EC50 (read off the curve); ADCC on CLL cells of a patient with disease relapsed/refractory to ibrutinib” value in data set [6] is about 1 µg/mL. The “EC50 (read off the curve); ADCC on CLL cells of a patient receiving zanabrutinib” value in [7] is about 0.8 µg/mL. In [8], the “EC50 (read off the curve); ADCC on CLL cells of a patient receiving ibrutinib” value is about 1 µg/mL. Moreover, in data set [9], the “EC50 (read off the curve); ADCC on CLL cells of a patient receiving venetoclax” value is about 0.2 µg/mL.
